In patent US10450274B2, “Quinoline compounds, preparation methods thereof, and uses thereof as urate transporter inhibitor drug” (HINOVA PHARMACEUTICALS INC., priority 2015, dated 2019):
Where “and” joins values, the source holds several entries; their conditions need not be identical. Equal values may be shown once.

What follows are molecules tested against T1, hURAT1 (Homo sapiens, UniProt Q96S37) (assay: Inhibitory activity against URAT1: 14C-labelled uric acid uptake in HEK-293t cells stably expressing hURAT1). Settings: HEK-293t/hURAT1 cells, 14C uric acid uptake, 5 minutes at room temperature; Ref Cpd 2, 83, Ref Cpd 3 and 129 are averages of head-to-head tests; read-out: IC50 (nM) of hURAT1 inhibitory activity.
T1 sequence (Q96S37 1-553): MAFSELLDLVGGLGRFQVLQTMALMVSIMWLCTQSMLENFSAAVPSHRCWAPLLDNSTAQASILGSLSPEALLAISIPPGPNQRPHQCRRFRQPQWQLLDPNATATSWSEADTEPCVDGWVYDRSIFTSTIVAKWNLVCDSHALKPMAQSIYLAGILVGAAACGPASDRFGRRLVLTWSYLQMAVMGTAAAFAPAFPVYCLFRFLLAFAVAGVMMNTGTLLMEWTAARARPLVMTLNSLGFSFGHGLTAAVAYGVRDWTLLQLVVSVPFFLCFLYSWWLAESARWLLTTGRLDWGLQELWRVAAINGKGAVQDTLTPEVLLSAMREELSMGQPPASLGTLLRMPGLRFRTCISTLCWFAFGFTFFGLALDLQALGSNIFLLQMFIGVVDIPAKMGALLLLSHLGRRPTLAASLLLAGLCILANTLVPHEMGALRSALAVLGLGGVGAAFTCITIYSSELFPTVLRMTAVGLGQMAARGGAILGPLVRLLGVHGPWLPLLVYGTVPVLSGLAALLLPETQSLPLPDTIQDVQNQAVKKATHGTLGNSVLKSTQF
Assay type: cell-based
Text: • Test example: Determination of the inhibitory activity of compounds according to the present invention against URAT1 Experimental Materials • FBS (Invitrogen, Cat. No. 10099141) • Trypsin (Invitrogen, Cat. No. 25200056) • DPBS (Invitrogen, Cat. No. 14190250) • DMEM (Invitrogen, Cat. No. 10564) • Penicillin-Streptomycin (Invitrogen, Cat. No. 15070-063) • TransIT-293 Transfection Reagent (MIRUS BIO, Cat. No. MIR2706) • Opti-MEM® I Reduced Serum Medium (Invitrogen, Cat. No. 31985-070) • URAT1 plasmid (Genecopoeia, Cat. No. EX-T4563-M03) • Uric acid [8-14C] (ARC, Cat. No. ARC0513-250UCI) • Ultima Gold™ XR (PerkinElmer, Cat. No. 6013111) • Benzbromarone (J&K Scientific, Cat. No. 3562-84-3) • D-Gluconic acid sodium salt (Aladdin, Cat. No. 527-07-1) • Potassium D-gluconate (Aladdin, Cat. No. 299-27-4) • Calcium gluconate (Aladdin, Cat. No. 299-28-5) • DMSO (Sigma, Cat. No. D2650) • Tube, 15 ml (Greiner, Cat. No. 07030115) • Tube, 50 ml (BD Falcon, Cat. No. 352098) • Poly-D-lysine 96-well microplates (BD, Cat. No. 356461) • Isoplate-96 Microplate (PERKIN ELMER, Cat. No. 6005040) Experimental Method:
Cell Culture: • 1. The HEK-293t cells that expressed the stable expression of hURAT1 were cultured in DMEM medium containing 10% FBS and 1% P/S, and incubated overnight in the incubator at 37° C. under 5% carbon dioxide. • 2. the culture medium was removed, and the cells were washed with PBS, and then the pancreatin was added to digest for 2 minutes. After the cell is separated from the dish, 10 ml of medium was added to terminate digestion. • 3. The cells were placed into a centrifugal apparatus and centrifugated for 2 minutes at the speed of 1000 rpm, followed by the addition of fresh 10 mL medium to resuspend the cells, and calculate the number of cells. The number of cells was adjusted to 4×10^5 cells/mL. • 4. the above counted cells were inoculated into the 96-well plate at 100 μL/well. • 5. The 96-well plate with inoculated cells was placed in a 37° C. cell incubator and cultivated overnight.
The uric acid absorption experiment labeled with isotope C14: • 1. 5 mL of Cl-free HBSS buffer was added to a 15 mL centrifuge tube, followed by the addition of the uric acid labeled with C14, and the concentration of uric acid was 2 uCi/ml. • 2. The medium in the 96-well plate that was previously cultivated overnight was removed, and the plate was washed three times with […] preheated Cl-free HBSS buffer. • 3. The buffer in the well-washed 96-well plate was removed. • 4. […] Cl-free HBSS buffer containing C-14 labeled uric acid was added into each well in the cleaned 96-well plate, and then DMSO solution of the compound that needs to be tested was added. • 5. After the 96-well plate stood for 5 minutes at room temperature, all the liquid in it was removed. • 6. […] precooled Cl-free HBSS buffer was added to wash the plate three times. • 7. After the remained liquid in the plates was completely removed, 50 μL cell lysis was added to each well, and the plate was agitated on the mixer at a speed of 600 revolutions/min for 10 minutes. • 8. After 50 μL Ultima Gold™ XR scitillation cocktail fluid was added, the plate was continued to agitate for 10 minutes. The well-agitated plate was sealed, and the data was read on MicroBeta Trilux. • 9. The test compound was dissolved in DMSO, and DMSO at the same concentration was added to the HEK293/hURAT1 cell well without test compounds. […] The radiation value obtained from the well containing DMSO is considered to be 100% of the cell uptake. The IC50 values of compounds can be calculated by the inhibition rate at different concentrations.
Among them, reference compound 1 was synthesized according to the method described in patent WO 2011/159839 A2. Reference compound 2 and reference compound 3 were synthesized according to the method described in patent WO 2014/183555 A1, and they were head-to-head tested with compounds 83 and 129 respectively under the same conditions.

IC50 [nM]	Molecule
2860	CCCC(CCC)(Sc1ccnc2ccc(-c3cccc(OC4CCC4)c3)cc12)C(=O)O [Compound 110, 2-(6-(3-cyclobutyloxy-phenyl)-quinolin-4-ylthio)-2-propylpentanoic acid]
147	CCC(CC)(Sc1ccnc2ccc(-c3cccc(OC4CC4)c3)cc12)C(=O)O [Compound 112, 2-(6-(3-cyclopropyloxy-phenyl)-quinolin-4-ylthio)-2-ethylbutanoic acid]
203	CCCC(CCC)(Sc1ccnc2ccc(Br)cc12)C(=O)O [Compound 114, 2-(6-bromoquinolin-4-ylthio)-2-propylpentanoic acid]
37	CC(C)Oc1cccc(-c2ccc3nccc(SC(C)(C)C(=O)O)c3c2)c1 [Compound 103, 2-(6-(3-isopropoxy-phenyl)-quinolin-4-ylthio)-2-methylpropanoic acid]
201	CCC(CC)(Sc1ccnc2ccccc12)C(=O)O [Compound 129]
109	CCOc1cccc(-c2ccc3nccc(SC(CC)(CC)C(=O)O)c3c2)c1 [Compound 113, 2-(6-(3-ethoxy-phenyl)-quinolin-4-ylthio)-2-ethylbutanoic acid]
1400	2-(6-(3-fluoropyridin-4-yl)-quinolin-4-ylthio)-2-ethylbutanoic acid [Compound 123]
138	O=C(O)C1(Sc2ccnc3ccc(Br)cc23)CCC1 [Ref Cpd 2, reference compound]
79	COc1cc(-c2ccc3nccc(SC(C)(C)C(=O)O)c3c2)ccn1 [Compound 115, 2-(6-(2-methoxypyridin-4-yl)quinolin-4-ylthio)-2-methylpropanoic acid]
267	CCC(CC)(Sc1ccnc2ccc(-c3cccc(OC4CCC4)c3)cc12)C(=O)O [Compound 111, 2-(6-(3-cyclobutyloxy-phenyl)-quinolin-4-ylthio)-2-ethylbutanoic acid]
154	CC(C)(Sc1ccncc1-c1ccc(C#N)c2ccccc12)C(=O)O [Ref cpd 1 (RDEA3170), reference compound]
722	CCCC(CCC)(Sc1ccnc2ccc(-c3cccc(OC4CC4)c3)cc12)C(=O)O [Compound 109, 2-(6-(3-cyclopropyloxy-phenyl)-quinolin-4-ylthio)-2-propylpentanoic acid]
272	CC(C)(Sc1ccnc2ccc(-c3ccnc(F)c3)cc12)C(=O)O [Compound 117, 2-(6-(2-fluoropyridin-4-yl)-quinolin-4-ylthio)-2-methylpropanoic acid]
336	CS(=O)(=O)NC(=O)C1(Sc2ccnc3ccc(Br)cc23)CCC1 [Compound 107, 1-(6-bromoquinolin-4-ylthio)-N-(methylsulfonyl)cyclobutyl-1-formamide]
238	CC(C)(Sc1ccnc2ccc(-c3cccc(OC(F)F)c3)cc12)C(=O)O [Compound 104]
1240	Cc1cc(-c2ccc3nccc(SC(C)(C)C(=O)O)c3c2)ccn1 [Compound 120, 2-(6-(2-methylpyridin-4-yl)quinolin-4-ylthio)-2-methylpropanoic acid]
794	O=C(O)C1(Sc2ccnc3ccccc23)CCC1 [Ref Cpd 3, reference compound]

Continued, molecule first:

Molecule	IC50 [nM]
CC(C)(Sc1ccnc2ccc(-c3ccncc3)cc12)C(=O)O [Compound 4, 2-(6-(pyridin-4-yl)quinolin-4-ylthio)-2-methylpropanoic acid]	127
CC(C)(Sc1ccnc2ccc(-c3cccnc3)cc12)C(=O)O [Compound 3, 2-(6-(pyridin-3-yl)quinolin-4-ylthio)-2-methylpropanoic acid]	514
COc1ccccc1-c1ccc2nccc(SC(C)(C)C(=O)O)c2c1 [Compound 19, 2-(6-(2-methoxyphenyl)-quinolin-4-ylthio)-2-methylpropanoic acid]	472
CC(C)(Sc1ccnc2ccc(-c3ccc(C#N)cc3)cc12)C(=O)O [Compound 100, 2-(6-(4-cyano-phenyl)-quinolin-4-ylthio)-2-methylpropanoic acid]	8140
CC(C)(Sc1ccnc2ccc(-c3cccc(OC(F)(F)F)c3)cc12)C(=O)O [Compound 101, 2-(6-(3-trifluoromethoxy-phenyl)-quinolin-4-ylthio)-2-methylpropanoic acid]	710
CCOc1cccc(-c2ccc3nccc(SC(C)(C)C(=O)O)c3c2)c1 [Compound 102, 2-(6-(3-ethoxy-phenyl)-quinolin-4-ylthio)-2-methylpropanoic acid]	32
CC(C)(Sc1ccnc2ccc(-c3ccc(C(F)(F)F)cc3)cc12)C(=O)O [Compound 34, 2-(6-(4-(trifluoromethyl)phenyl)quinolin-4-ylthio)-2-methylpropanoic acid]	4600
CC(C)(Sc1ccnc2ccccc12)C(=O)O [Compound 93, 2-(quinolin-4-ylthio)-2-methylpropanoic acid]	2400
CCC(CC)(Sc1ccnc2ccc(Br)cc12)C(=O)O [Compound 83, 2-(6-bromoquinolin-4-ylthio)-2-ethylbutanoic acid]	70.6
CC(C)(Sc1ccnc2ccc(-c3cccc(F)c3)cc12)C(=O)O [Compound 28, 2-(6-(3-fluorophenyl)-quinolin-4-ylthio)-2-methylpropanoic acid]	351
COc1cc2nccc(SC(C)(C)C(=O)O)c2cc1OC [Compound 95, 2-(6,7-dimethoxyquinolin-4-ylthio)-2-methylpropanoic acid]	> 30000
COc1ccc(-c2ccc3nccc(SC(C)(C)C(=O)O)c3c2)cc1 [Compound 21, 2-(6-(4-methoxyphenyl)quinolin-4-ylthio)-2-methylpropanoic acid]	1900
CC(C)(Sc1ccnc2ccc(C(F)(F)F)cc12)C(=O)O [Compound 96, 2-(6-trifluoromethylquinolin-4-ylthio)-2-methylpropanoic acid]	772

Same assay, conditions: average of the multiple head-to-head comparison tests, Table 2; read-out: Average (IC50 of multiple determinations)

IC50 [nM]	Molecule
138	O=C(O)C1(Sc2ccnc3ccc(Br)cc23)CCC1 [Ref Cpd 2, reference compound]
70.6	CCC(CC)(Sc1ccnc2ccc(Br)cc12)C(=O)O [Compound 83, 2-(6-bromoquinolin-4-ylthio)-2-ethylbutanoic acid]

Same assay, conditions: single determinations of multiple head-to-head tests, Ref cpd 2 vs Cpd 83; read-out: Multiple determination data (IC50)

IC50	Molecule
72.9 nM and 185 nM and 172 nM and 164 nM and 144 nM and 127 nM and 99 nM	O=C(O)C1(Sc2ccnc3ccc(Br)cc23)CCC1 [Ref Cpd 2, reference compound]
42.5 nM and 117 nM and 89 nM and 93 nM and 56 nM and 58 nM and 38.9 nM	CCC(CC)(Sc1ccnc2ccc(Br)cc12)C(=O)O [Compound 83, 2-(6-bromoquinolin-4-ylthio)-2-ethylbutanoic acid]

Same assay, conditions: statement in the text on Table 1

Molecule	inhibitory effect on uric acid transporter URAT1 (in words)
CCC(CC)(Sc1ccnc2ccc(Br)cc12)C(=O)O [Compound 83, 2-(6-bromoquinolin-4-ylthio)-2-ethylbutanoic acid]	better inhibitory activity against the uric acid transporter than compound 1
